Data as given in patent US10793580B2, “Substituted pyrazoloazepin-8-ones and their use as phosphodiesterase inhibitors” (LEO Pharma A/S, priority 2016, dated 2020).
Like-named read-outs stand apart in the source and are kept apart here.

Target: human PDE4D catalytic domain (Homo sapiens (Human), UniProt Q08499)
Experiment: PDE4 Assay (TR-FRET, FAM-cAMP cleavage)
Type: biochemical
Details: read-out: PDE4 IC50 range
Summary of the method: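 Readout is Tb-to-FAM time-resolved FRET after nanoparticle capture of AMP, the product of cleaving a cAMP/FAM-cAMP mixture by PDE4D catalytic domain (S380-L740) in the presence of titrated compound. Values are IC50 ranges in nM: concentration halving substrate cleavage relative to controls.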

[1] = human PDE4D catalytic domain (UniProt Q08499 [S380-L740]), 50% inhibition of substrate cleavage

Chain of human PDE4D catalytic domain (Q08499 380-740): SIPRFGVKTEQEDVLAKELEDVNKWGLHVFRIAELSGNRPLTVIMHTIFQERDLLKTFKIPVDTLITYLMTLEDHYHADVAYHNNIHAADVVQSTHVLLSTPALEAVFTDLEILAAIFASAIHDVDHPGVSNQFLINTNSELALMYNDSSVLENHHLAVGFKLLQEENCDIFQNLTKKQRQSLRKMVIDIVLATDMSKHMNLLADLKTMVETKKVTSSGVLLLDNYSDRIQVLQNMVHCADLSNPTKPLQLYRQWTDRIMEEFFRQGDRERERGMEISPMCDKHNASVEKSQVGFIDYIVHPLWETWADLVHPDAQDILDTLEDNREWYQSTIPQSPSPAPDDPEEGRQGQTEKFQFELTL

| Structure (SMILES) | IC50 [1] [µM] | IC50 (Table 17, Examples 297-316) [µM] |
| --- | --- | --- |
| CCn1nc(CCCOC(=O)c2cc(OC)cc(C(F)(F)F)c2)c2c1C(=O)NCC1(CCOCC1)C2 [Example 82, 3-(1-ethyl-8-oxo-spiro[6,7-dihydro-4H-pyrazolo[3,4-c]azepine-5,4′-tetrahydropyran]-3-yl)propyl 3-methoxy-5-(trifluoromethyl)benzoate] | < 0.1 |  |
| CCn1nc(CCCOC(=O)c2cccc(F)c2F)c2c1C(=O)NCC1(CCOCC1)C2 [Example 24, 3-(1-ethyl-8-oxo-spiro[6,7-dihydro-4H-pyrazolo[3,4-c]azepine-5,4′-tetrahydropyran]-3-yl)propyl 2,3-difluorobenzoate] | < 0.1 |  |
| CCn1nc(CCCOC(=O)c2cnc(C)s2)c2c1C(=O)NCC1(CCOCC1)C2 [Example 255, 3-(1-ethyl-8-oxo-spiro[6,7-dihydro-4H-pyrazolo[3,4-c]azepine-5,4′-tetrahydropyran]-3-yl)propyl 2-methylthiazole-5-carboxylate] | < 0.1 |  |
| CCn1nc(CC(C)(C)COC(=O)c2ccc(C(=O)N(C)C)cc2)c2c1C(=O)NCC1(CCOCC1)C2 [Example 220, [3-(1-ethyl-8-oxo-spiro[6,7-dihydro-4H-pyrazolo[3,4-c]azepine-5,4′-tetra-hydropyran]-3-yl)-2,2-dimethyl-propyl] 4-(di-methylcarbamoyl)benzoate] | < 0.1 |  |
| CCc1ccc(C(=O)OC[C@H](C)Cc2nn(CC)c3c2CC2(CCOCC2)CNC3=O)cc1 [Example 148, [(2R)-3-(1-ethyl-8-oxo-spiro[6,7-dihydro-4H-pyrazolo[3,4-c]azepine-5,4′-tetrahydropyran]-3-yl)-2-methyl-propyl] 4-ethylbenzoate] | < 0.1 |  |
| CCn1nc(CCCOC(=O)c2cn(C)cn2)c2c1C(=O)NCC1(CCOCC1)C2 [Example 239, 3-(1-ethyl-8-oxo-spiro[6,7-dihydro-4H-pyrazolo[3,4-c]azepine-5,4′-tetrahydropyran]-3-yl)propyl 1-methylimidazole-4-carboxylate] | < 0.1 |  |
| CCn1nc(CCCOC(=O)c2cnc(C)nc2)c2c1C(=O)NCC1(CCOCC1)C2 [Example 247, 3-(1-ethyl-8-oxo-spiro[6,7-dihydro-4H-pyrazolo[3,4-c]azepine-5,4′-tetrahydropyran]-3-yl)propyl 2-methylpyrimidine-5-carboxylate] | < 0.1 |  |
| CCn1nc(CCCOC(=O)c2ccc(F)c(OC)c2)c2c1C(=O)NCC1(CCOCC1)C2 [Example 36, 3-(1-ethyl-8-oxo-spiro[6,7-dihydro-4H-pyrazolo[3,4-c]azepine-5,4′-tetrahydropyran]-3-yl)propyl 4-fluoro-3-methoxy-benzoate] | < 0.1 |  |
| CCn1nc(CCCOC(=O)c2cccc(F)c2C)c2c1C(=O)NCC1(CCOCC1)C2 [Example 21, 3-(1-ethyl-8-oxo-spiro[6,7-dihydro-4H-pyrazolo[3,4-c]azepine-5,4′-tetrahydropyran]-3-yl)propyl 3-fluoro-2-methyl-benzoate] | < 0.1 |  |
| CCn1nc(CCCOC(=O)c2ccc(Cl)c(C(F)(F)F)c2)c2c1C(=O)NCC1(CCOCC1)C2 [Example 89, 3-(1-ethyl-8-oxo-spiro[6,7-dihydro-4H-pyrazolo[3,4-c]azepine-5,4′-tetrahydro-pyran]-3-yl)propyl 4-chloro-3-(trifluoromethyl)benzoate] | < 0.1 |  |
| CCn1nc(C[C@@H](C)COC(=O)c2cccc(S(=O)(=O)N3CCCC3)c2)c2c1C(=O)NCC1(CCOCC1)C2 [Example 163, [(2R)-3-(1-ethyl-8-oxo-spiro[6,7-dihydro-4H-pyrazolo[6,7-c]azepine-5,4′-tetrahydropyran]-3-yl)-2-methyl-propyl] 3-pyrrolidin-1-ylsulfonylbenzoate] | < 0.1 |  |
| CCn1nc(CC(C)(C)COC(=O)C2CCN(C(=O)N(C)C)CC2)c2c1C(=O)NCC1(CCOCC1)C2 [Example 316, [3-(1-ethyl-8-oxo-spiro[6,7-dihydro-4H-pyrazolo[3,4-c]azepine-5,4′-tetrahydro-pyran]-3-yl)-2,2-dimethyl-propyl] 1-(dimethylcarbamoyl)-piperidine-4-carboxylate] |  | < 0.1 |
